The record followed here is patent US20260297070A1, “CYCLIC [COMPOUND LEFT OUT] WRN INHIBITORS” (Nimbus Wadjet, Inc., priority 2023, published 2026).

T1 sequence (Q14191 with tags, fused parts or gaps L1074F limits assumed): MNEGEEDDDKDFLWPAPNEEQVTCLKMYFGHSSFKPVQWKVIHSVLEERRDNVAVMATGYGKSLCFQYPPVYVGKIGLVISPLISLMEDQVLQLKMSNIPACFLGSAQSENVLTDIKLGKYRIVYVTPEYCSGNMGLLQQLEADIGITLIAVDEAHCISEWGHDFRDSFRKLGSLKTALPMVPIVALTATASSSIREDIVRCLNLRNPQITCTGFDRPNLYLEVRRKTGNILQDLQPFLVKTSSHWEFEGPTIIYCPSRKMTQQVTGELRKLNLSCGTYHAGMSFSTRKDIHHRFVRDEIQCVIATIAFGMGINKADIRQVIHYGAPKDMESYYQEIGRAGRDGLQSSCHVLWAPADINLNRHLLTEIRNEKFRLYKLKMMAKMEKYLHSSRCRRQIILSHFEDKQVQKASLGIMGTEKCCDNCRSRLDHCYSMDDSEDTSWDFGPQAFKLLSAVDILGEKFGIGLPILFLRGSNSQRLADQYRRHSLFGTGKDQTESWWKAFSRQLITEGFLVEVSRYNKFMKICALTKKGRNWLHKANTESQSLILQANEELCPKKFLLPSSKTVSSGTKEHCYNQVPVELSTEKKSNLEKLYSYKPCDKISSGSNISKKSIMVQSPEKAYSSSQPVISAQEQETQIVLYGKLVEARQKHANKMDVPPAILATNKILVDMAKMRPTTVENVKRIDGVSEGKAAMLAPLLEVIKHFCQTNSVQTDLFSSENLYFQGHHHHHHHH

This assay concerns the target T1, human Werner helicase (WRN-BV08, Uniprot Q14191, amino acids 517-1235 with L1074F point mutation) (Homo sapiens, UniProt Q14191, L1074F).
T1 construct: Uniprot Q14191, amino acids 517-1235 with L1074F point mutation; TEV-cleavable 8×His (C, cleaved yes); made in house; host or cells: Sf9 insect cells (baculovirus)
The assay can be described thus: WRN (BV08) ADP-Glo Assay. Type of assay: biochemical. The settings on record: 0.15 nM WRN, 5 μM ATP, 0.1 nM DNA duplex, 15 min preincubation, 60 min at 25° C., pH 7.5, 1% DMSO; read-out: ADP-Glo_hWRN_IC50. The method in brief:
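Untagged WRN (Sf9-expressed, TEV-cleaved) at 0.15 nM was preincubated 15 min at 25 °C with compound, then reacted 60 min at 25 °C with 5 μM ATP and 0.1 nM DNA duplex in Bicine pH 7.5, 1 mM MgCl2. ADP-Glo luminescence gave % inhibition; IC50 by four-parameter fit.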
(In ADP-Glo the light output rises with the ADP produced.)
For `NCCc1cccn1-c1ccc(CC(=O)N(Cc2ccccc2)C2C=CS(=O)(=O)C2)cc1` (stereo not drawn) [I-268, 2-{4-[2-(2-aminoethyl)-1H-pyrrol-1-yl]phenyl}-N-benzyl-N-(1,1-dioxo-2,3-dihydro-1lambda6-thiophen-3-yl)acetamide], the IC50 was 5 to 10 µM. For `O=C(Cc1ccc(-n2cccc2)cc1)N(Cc1ccccc1)C1C=C(Br)S(=O)(=O)C1` (stereo not drawn) [I-269, 2-(4-(1H-pyrrol-1-yl)phenyl)-N-benzyl-N-(5-bromo-1,1-dioxido-2,3-dihydrothiophen-3-yl)acetamide] the value was 10 to 50 µM; for `O=C(Cc1ccc(-n2cccc2)cc1)N(Cc1cccc(F)c1)C1C=CS(=O)(=O)C1` (stereo not drawn) [I-270, N-(1,1-dioxo-2,3-dihydro-1lambda6-thiophen-3-yl)-N-[(3-fluorophenyl)methyl]-2-[4-(1H-pyrrol-1-yl)phenyl]acetamide], 5 to 10 µM; for `N#Cc1cccn1-c1ccc(CC(=O)N(Cc2ccncc2)C2C=CS(=O)(=O)C2)cc1` (stereo not drawn) [I-272, 2-[4-(2-cyano-1H-pyrrol-1-yl)phenyl]-N-(1,1-dioxo-2,3-dihydro-1lambda6-thiophen-3-yl)-N-[(pyridin-4-yl)methyl]acetamide], 5 to 10 µM.

Regarding `O=C(Cc1ccc(C2CC2(F)F)cc1)N(Cc1ccncc1)C1C=CS(=O)(=O)C1` (stereo not drawn) [I-273, 2-[4-(2,2-difluorocyclopropyl)phenyl]-N-(1,1-dioxo-2,3-dihydro-1lambda6-thiophen-3-yl)-N-[(pyridin-4-yl)methyl]acetamide], the IC50 was in the range of 5 to 10 µM. The result for `Cc1cnc(CN(C(=O)Cc2ccc(-n3cccc3)cc2)C2C=CS(=O)(=O)C2)s1` (stereo not drawn) [I-274, N-(1,1-dioxo-2,3-dihydro-1lambda6-thiophen-3-yl)-N-[(5-methyl-1,3-thiazol-2-yl)methyl]-2-[4-(1H-pyrrol-1-yl)phenyl]acetamide] reads 5 to 10 µM; that for `O=C(O)c1ccc(CN(C(=O)Cc2ccc(-n3cccc3)cc2)C2C=CS(=O)(=O)C2)cc1` (stereo not drawn) [I-275, 4-{[N-(1,1-dioxo-2,3-dihydro-1lambda6-thiophen-3-yl)-2-[4-(1H-pyrrol-1-yl)phenyl]acetamido]methyl}benzoic acid], 10 to 50 µM; that for `O=C(Cc1ccc(-n2cccc2)cc1)N(Cc1nccs1)C1C=CS(=O)(=O)C1` (stereo not drawn) [I-276, N-(1,1-dioxo-2,3-dihydro-1lambda6-thiophen-3-yl)-2-[4-(1H-pyrrol-1-yl)phenyl]-N-[(1,3-thiazol-2-yl)methyl]acetamide], 5 to 10 µM. Regarding `Cc1ccc(-c2ccc(C(C(=O)N(C)C)C(=O)N(Cc3ccncc3)C3C=CS(=O)(=O)C3)cc2)cc1` (stereo not drawn) [I-277, N-(1,1-dioxo-2,3-dihydro-1lambda6-thiophen-3-yl)-N′,N′-dimethyl-2-{4′-methyl-[1,1′-biphenyl]-4-yl}-N-[(pyridin-4-yl)methyl]propanediamide], the IC50 is 5 to 10 µM. The result for `O=C(Cc1ccc(-n2cccc2)cc1)N(Cc1cc(F)ccc1F)C1C=CS(=O)(=O)C1` (stereo not drawn) [I-278, N-[(2,5-difluorophenyl)methyl]-N-(1,1-dioxo-2,3-dihydro-1lambda6-thiophen-3-yl)-2-[4-(1H-pyrrol-1-yl)phenyl]acetamide] reads 10 to 50 µM; that for `O=C(Cc1ncc(-n2cccc2)s1)N(Cc1ccncc1)C1C=CS(=O)(=O)C1` (stereo not drawn) [I-279, N-(1,1-dioxo-2,3-dihydro-1lambda6-thiophen-3-yl)-N-[(pyridin-4-yl)methyl]-2-[5-(1H-pyrrol-1-yl)-1,3-thiazol-2-yl]acetamide], 5 to 10 µM; that for `COc1ccc(CN(C(=O)Cc2ccc(-n3cccc3)cc2)C2C=CS(=O)(=O)C2)cc1OC` (stereo not drawn) [I-280, N-[(3,4-dimethoxyphenyl)methyl]-N-(1,1-dioxo-2,3-dihydro-1lambda6-thiophen-3-yl)-2-[4-(1H-pyrrol-1-yl)phenyl]acetamide], 10 to 50 µM. For the compound `CC(C)Cc1ccc(CC(=O)N(Cc2ccncc2)C2C=CS(=O)(=O)C2)cc1` (stereo not drawn) [I-283, N-(1,1-dioxo-2,3-dihydro-1lambda6-thiophen-3-yl)-2-[4-(2-methylpropyl)phenyl]-N-[(pyridin-4-yl)methyl]acetamide], the IC50 was in the range of 10 to 50 µM. For `CS(=O)(=O)Nc1ccc(CN(C(=O)Cc2ccc(-n3cccc3)cc2)C2C=CS(=O)(=O)C2)cc1` (stereo not drawn) [I-284, N-(1,1-dioxo-2,3-dihydro-1lambda6-thiophen-3-yl)-N-[(4-methanesulfonamidophenyl)methyl]-2-[4-(1H-pyrrol-1-yl)phenyl]acetamide] the value was 10 to 50 µM; for `O=C(Cc1ccc(-n2cccc2)cc1)N(Cc1ccc(C2CC2)cn1)C1C=CS(=O)(=O)C1` (stereo not drawn) [I-285, N-[(5-cyclopropylpyridin-2-yl)methyl]-N-(1,1-dioxo-2,3-dihydro-1lambda6-thiophen-3-yl)-2-[4-(1H-pyrrol-1-yl)phenyl]acetamide], 5 to 10 µM. For `N#Cc1cccc(CN(C(=O)Cc2ccc(-n3cccc3)cc2)C2C=CS(=O)(=O)C2)c1` (stereo not drawn) [I-286, N-[(3-cyanophenyl)methyl]-N-(1,1-dioxo-2,3-dihydro-1lambda6-thiophen-3-yl)-2-[4-(1H-pyrrol-1-yl)phenyl]acetamide] the value was 10 to 50 µM; for `O=C(Cc1ccc(C2CC2)cc1)N(Cc1ccncc1)C1C=CS(=O)(=O)C1` (stereo not drawn) [I-287, 2-(4-cyclopropylphenyl)-N-(1,1-dioxo-2,3-dihydro-1lambda6-thiophen-3-yl)-N-[(pyridin-4-yl)methyl]acetamide], 5 to 10 µM; for `Cc1cccc(-c2ccc(CC(=O)N(Cc3ccncc3)C3C=CS(=O)(=O)C3)cc2)c1` (stereo not drawn) [I-288, N-(1,1-dioxo-2,3-dihydro-1lambda6-thiophen-3-yl)-2-{3′-methyl-[1,1′-biphenyl]-4-yl}-N-[(pyridin-4-yl)methyl]acetamide], 10 to 50 µM. On to `O=C(Cc1cc(-c2ccccc2)n[nH]1)N(Cc1ccncc1)C1C=CS(=O)(=O)C1` (stereo not drawn) [I-289, N-(1,1-dioxo-2,3-dihydro-1lambda6-thiophen-3-yl)-2-(3-phenyl-1H-pyrazol-5-yl)-N-[(pyridin-4-yl)methyl]acetamide], for which the IC50 is 10 to 50 µM.

On to `O=C(Cc1ccc(-n2cccc2)cc1)N(Cc1ccccc1)C1C=CS(=O)(=O)C1` (stereo not drawn) [I-290, N-benzyl-N-(1,1-dioxo-2,3-dihydro-1lambda6-thiophen-3-yl)-2-[4-(1H-pyrrol-1-yl)phenyl]acetamide], for which the IC50 lay in the range of 5 to 10 µM. For `O=C(Cn1ncc(-c2ccccc2)n1)N(Cc1ccncc1)C1C=CS(=O)(=O)C1` (stereo not drawn) [I-291, N-(1,1-dioxo-2,3-dihydro-1lambda6-thiophen-3-yl)-2-(4-phenyl-2H-1,2,3-triazol-2-yl)-N-[(pyridin-4-yl)methyl]acetamide] the value was 10 to 50 µM; for `O=C(Cc1ccc(-n2cccc2)cc1)N(Cc1cccc(O)c1)C1C=CS(=O)(=O)C1` (stereo not drawn) [I-292, N-(1,1-dioxo-2,3-dihydro-1lambda6-thiophen-3-yl)-N-[(3-hydroxyphenyl)methyl]-2-[4-(1H-pyrrol-1-yl)phenyl]acetamide], 10 to 50 µM; for `O=C(Cc1ccc(C(F)(F)F)cc1Br)N(Cc1ccncc1)C1C=CS(=O)(=O)C1` (stereo not drawn) [I-293, 2-[2-bromo-4-(trifluoromethyl)phenyl]-N-(1,1-dioxo-2,3-dihydro-1lambda6-thiophen-3-yl)-N-[(pyridin-4-yl)methyl]acetamide], 10 to 50 µM. The result for `O=C(Cc1ccc(-n2cccc2)cc1)N(Cc1c(F)cccc1F)C1C=CS(=O)(=O)C1` (stereo not drawn) [I-294, N-[(2,6-difluorophenyl)methyl]-N-(1,1-dioxo-2,3-dihydro-1lambda6-thiophen-3-yl)-2-[4-(1H-pyrrol-1-yl)phenyl]acetamide] reads 10 to 50 µM; that for `O=C(Cc1ccc(-n2cccc2)cc1)N(Cc1ccc(C(F)(F)F)nc1)C1C=CS(=O)(=O)C1` (stereo not drawn) [I-295, N-(1,1-dioxo-2,3-dihydro-1lambda6-thiophen-3-yl)-2-[4-(1H-pyrrol-1-yl)phenyl]-N-{[6-(trifluoromethyl)pyridin-3-yl]methyl}acetamide], 10 to 50 µM; that for `O=C(Cc1ccc(-n2cccc2)cc1)N(Cc1cnc2ccccc2c1)C1C=CS(=O)(=O)C1` (stereo not drawn) [I-296, N-(1,1-dioxo-2,3-dihydro-1lambda6-thiophen-3-yl)-2-[4-(1H-pyrrol-1-yl)phenyl]-N-[(quinolin-3-yl)methyl]acetamide], 10 to 50 µM. For `O=C(Cc1ccc(-n2cccc2)cc1)N(Cc1ccnc(-c2ccccc2)c1)C1C=CS(=O)(=O)C1` (stereo not drawn) [I-297, N-(1,1-dioxo-2,3-dihydro-1lambda6-thiophen-3-yl)-N-[(2-phenylpyridin-4-yl)methyl]-2-[4-(1H-pyrrol-1-yl)phenyl]acetamide] the value was 0.5 to 5 µM; for `CC(C)(O)c1cc(CN(C(=O)C2Cc3cc(-c4ccc(F)cc4)ccc3O2)C2C=CS(=O)(=O)C2)ccn1` (stereo not drawn) [I-298, N-(1,1-dioxo-2,3-dihydro-1lambda6-thiophen-3-yl)-5-(4-fluorophenyl)-N-{[2-(2-hydroxypropan-2-yl)pyridin-4-yl]methyl}-2,3-dihydro-1-benzofuran-2-carboxamide], 10 to 50 µM; for `O=C(Cc1ccc(C(F)(F)F)c(Cl)c1)N(Cc1ccncc1)C1C=CS(=O)(=O)C1` (stereo not drawn) [I-299, 2-[3-chloro-4-(trifluoromethyl)phenyl]-N-(1,1-dioxo-2,3-dihydro-1lambda6-thiophen-3-yl)-N-[(pyridin-4-yl)methyl]acetamide], 10 to 50 µM. Turning to `O=C(Cc1ncc(-c2ccccc2)s1)N(Cc1ccncc1)C1C=CS(=O)(=O)C1` (stereo not drawn) [I-300, N-(1,1-dioxo-2,3-dihydro-1lambda6-thiophen-3-yl)-2-(5-phenyl-1,3-thiazol-2-yl)-N-[(pyridin-4-yl)methyl]acetamide], the IC50 fell in the range of 10 to 50 µM.
